Test results reported in the supplement of paper PMC8671470.
± gives the standard deviation of the averaged measurements.

Tests used:
Conditions in all cases: 72 h
HL-60 [1] = experiment: cell viability (% survival relative to DMSO control, bortezomib = 0%); higher = less cytotoxic
Summary of the method: (§1)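 Fifteen myeloid leukaemia cell lines were exposed to compounds at 1, 10, 100, 1000 or 10000 nM in 384-well plates for 72 h at 37 °C and 5% CO2. Viability was read by CellTiter-Glo luminescence and normalised, with vehicle as 100% and a 10 µM positive control as 0%. Values are percent survival averaged over duplicates.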

MV4-11 = experiment: as above
Summary of the method: as §1

BV-173 = experiment: as above
Summary of the method: as §1

KCL-22 = experiment: as above
Summary of the method: as §1

MOLM-13 = experiment: as above
Summary of the method: as §1

K-562 = experiment: as above
Summary of the method: as §1

Mono-Mac-6 = experiment: as above
Summary of the method: as §1

LAMA-84 = experiment: as above
Summary of the method: as §1

KU-812 = experiment: as above
Summary of the method: as §1

SHI-1 = experiment: as above
Summary of the method: as §1

THP-1 = experiment: as above
Summary of the method: as §1

ML-2 = experiment: as above
Summary of the method: as §1

HEL = experiment: as above
Summary of the method: as §1

KG-1 = experiment: as above
Summary of the method: as §1

NOMO-1 [2] = experiment: as above
Summary of the method: as §1

HL-60 [3] = experiment: cell viability (% survival relative to DMSO control); higher = less cytotoxic
Summary of the method: (§2)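 Four-parameter log-logistic fits in drc and PharmacoGx supplied area under the curve where it is given. Underlying viability came from CellTiter-Glo, normalised to DMSO and proteasome-inhibitor wells, with the proteasome inhibitor at 10 μM. HL-60 cells in RPMI 1640 plus 10% FBS had been rescreened against the full library at five tenfold concentrations of 1–10,000 nM, in duplicate on 384-well plates, with DMSO or 100 nM of one of three metabolic inhibitors, for 72 h at 37 °C, 5% CO2.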

NOMO-1 [4] = system: NOMO-1
Summary of the method: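 Fifteen myeloid leukaemia cell lines were seeded in RPMI 1640 at densities titrated to the linear growth range and placed in 384-well plates with acoustically pre-printed compounds at five tenfold doses from 1 to 10,000 nM, in duplicate. After 72 h at 37 °C with 5% CO2, luminescent ATP viability was normalised to vehicle and to a positive control at 10 µM, and curves were fitted with a four-parameter log-logistic model. The IC50 was obtained from these fits.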

HL-60 [5] = experiment: area under dose-response curve (viability, 1 nM-10 uM) (fraction (0-1)); higher = more sensitive
Summary of the method: as §2

## CC(=O)N1CCN(c2ccc(OC[C@@H]3CO[C@@](Cn4ccnc4)(c4ccc(Cl)cc4Cl)O3)cc2)CC1 (racemic) [Ketoconazole]
HL-60 [1]; 1 nM
  cell viability: 104%
HL-60 [1]; 10 nM
  cell viability: 109%
HL-60 [1]; 100 nM
  cell viability: 97.8%
HL-60 [1]; 1000 nM
  cell viability: 112%
HL-60 [1]; 10000 nM
  cell viability: 75.5%
MV4-11; 1 nM
  cell viability: 92.5%
MV4-11; 10 nM
  cell viability: 94.3%
MV4-11; 100 nM
  cell viability: 102%
MV4-11; 1000 nM
  cell viability: 98.2%
MV4-11; 10000 nM
  cell viability: 54.7%
BV-173; 1 nM
  cell viability: 90.8%
BV-173; 10 nM
  cell viability: 78.3%
BV-173; 100 nM
  cell viability: 100%
BV-173; 1000 nM
  cell viability: 92.6%
BV-173; 10000 nM
  cell viability: 78.8%
KCL-22; 1 nM
  cell viability: 98.4%
KCL-22; 10 nM
  cell viability: 117%
KCL-22; 100 nM
  cell viability: 101%
KCL-22; 1000 nM
  cell viability: 103%
KCL-22; 10000 nM
  cell viability: 44.1%
MOLM-13; 1 nM
  cell viability: 92.5%
MOLM-13; 10 nM
  cell viability: 110%
MOLM-13; 100 nM
  cell viability: 100%
MOLM-13; 1000 nM
  cell viability: 104%
MOLM-13; 10000 nM
  cell viability: 88.1%
K-562; 1 nM
  cell viability: 98.6%
K-562; 10 nM
  cell viability: 95.2%
K-562; 100 nM
  cell viability: 97.3%
K-562; 1000 nM
  cell viability: 91.8%
K-562; 10000 nM
  cell viability: 95.8%
Mono-Mac-6; 1 nM
  cell viability: 93.6%
Mono-Mac-6; 10 nM
  cell viability: 91.8%
Mono-Mac-6; 100 nM
  cell viability: 95.6%
Mono-Mac-6; 1000 nM
  cell viability: 94%
Mono-Mac-6; 10000 nM
  cell viability: 90.1%
LAMA-84; 1 nM
  cell viability: 104%
LAMA-84; 10 nM
  cell viability: 97.9%
LAMA-84; 100 nM
  cell viability: 96.3%
LAMA-84; 1000 nM
  cell viability: 96.7%
LAMA-84; 10000 nM
  cell viability: 82.6%
KU-812; 1 nM
  cell viability: 100%
KU-812; 10 nM
  cell viability: 102%
KU-812; 100 nM
  cell viability: 95.1%
KU-812; 1000 nM
  cell viability: 105%
KU-812; 10000 nM
  cell viability: 70.5%
SHI-1; 1 nM
  cell viability: 104%
SHI-1; 10 nM
  cell viability: 113%
SHI-1; 100 nM
  cell viability: 96.3%
SHI-1; 1000 nM
  cell viability: 114%
SHI-1; 10000 nM
  cell viability: 97.5%
THP-1; 1 nM
  cell viability: 105%
THP-1; 10 nM
  cell viability: 95.9%
THP-1; 100 nM
  cell viability: 97.4%
THP-1; 1000 nM
  cell viability: 104%
THP-1; 10000 nM
  cell viability: 91.1%
ML-2; 1 nM
  cell viability: 97.8%
ML-2; 10 nM
  cell viability: 113%
ML-2; 100 nM
  cell viability: 90.8%
ML-2; 1000 nM
  cell viability: 101%
ML-2; 10000 nM
  cell viability: 69.9%
HEL; 1 nM
  cell viability: 104%
HEL; 10 nM
  cell viability: 105%
HEL; 100 nM
  cell viability: 94.1%
HEL; 1000 nM
  cell viability: 112%
HEL; 10000 nM
  cell viability: 67.2%
KG-1; 1 nM
  cell viability: 97.5%
KG-1; 10 nM
  cell viability: 105%
KG-1; 100 nM
  cell viability: 90.9%
KG-1; 1000 nM
  cell viability: 93.7%
KG-1; 10000 nM
  cell viability: 42.9%
NOMO-1 [2]; 1 nM
  cell viability: 102%
NOMO-1 [2]; 10 nM
  cell viability: 95.5%
NOMO-1 [2]; 100 nM
  cell viability: 100%
NOMO-1 [2]; 1000 nM
  cell viability: 99.8%
NOMO-1 [2]; 10000 nM
  cell viability: 99.5%
HL-60 [3]; 0.001 µM, co-treatment: AZD3965 100 nM
  cell viability: 98.3 ± 5%
HL-60 [3]; 0.001 µM, co-treatment: DMSO vehicle
  cell viability: 99.7 ± 1.4%
HL-60 [3]; 0.001 µM, co-treatment: GSK2194069 100 nM
  cell viability: 100 ± 3.6%
HL-60 [3]; 0.001 µM, co-treatment: pictilisib 100 nM
  cell viability: 88.8 ± 17%
HL-60 [3]; 0.01 µM, co-treatment: AZD3965 100 nM
  cell viability: 95.6 ± 8.3%
HL-60 [3]; 0.01 µM, co-treatment: DMSO vehicle
  cell viability: 96.9 ± 3.1%
HL-60 [3]; 0.01 µM, co-treatment: GSK2194069 100 nM
  cell viability: 78.8 ± 21%
HL-60 [3]; 0.01 µM, co-treatment: pictilisib 100 nM
  cell viability: 95.03 ± 0.18%
HL-60 [3]; 0.1 µM, co-treatment: AZD3965 100 nM
  cell viability: 105 ± 4.2%
HL-60 [3]; 0.1 µM, co-treatment: DMSO vehicle
  cell viability: 104 ± 3%
HL-60 [3]; 0.1 µM, co-treatment: GSK2194069 100 nM
  cell viability: 109 ± 12%
HL-60 [3]; 0.1 µM, co-treatment: pictilisib 100 nM
  cell viability: 106 ± 18%
HL-60 [3]; 1 µM, co-treatment: AZD3965 100 nM
  cell viability: 109 ± 11%
HL-60 [3]; 1 µM, co-treatment: DMSO vehicle
  cell viability: 104 ± 0.52%
HL-60 [3]; 1 µM, co-treatment: GSK2194069 100 nM
  cell viability: 110 ± 14%
HL-60 [3]; 1 µM, co-treatment: pictilisib 100 nM
  cell viability: 111 ± 10%
HL-60 [3]; 10 µM, co-treatment: AZD3965 100 nM
  cell viability: 96.1 ± 8.6%
HL-60 [3]; 10 µM, co-treatment: DMSO vehicle
  cell viability: 102.6 ± 0.17%
HL-60 [3]; 10 µM, co-treatment: GSK2194069 100 nM
  cell viability: 95.6 ± 2.4%
HL-60 [3]; 10 µM, co-treatment: pictilisib 100 nM
  cell viability: 102 ± 1.4%
NOMO-1 [4]
  IC50 (cell viability): > 10 µM
HL-60 [5]; co-treatment: AZD3965 100 nM
  area under dose-response curve: < 0.0301
HL-60 [5]; co-treatment: DMSO vehicle
  area under dose-response curve: < 0.0301
HL-60 [5]; co-treatment: GSK2194069 100 nM
  area under dose-response curve: < 0.0301
HL-60 [5]; co-treatment: pictilisib 100 nM
  area under dose-response curve: < 0.0301
